Source: ChEMBL document CHEMBL1201862, “PubChem BioAssay data set” (2004)
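Assay format: 96-well plates, 48-hour exposure. Abbreviation: GI50, concentration required for 50% inhibition of growth.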 Calls of active or inactive are those of the source. Rule as the data show it: active = GI50 up to about 1.1 µM and inactive = higher.

What was measured:
Test in all cases: NCI anticancer screen, dose series, 48 h
786-0 = test system: 786-0
CAKI-1 = test system: CAKI-1
HCC 2998 = test system: HCC 2998
HOP-62 = test system: HOP-62
HT-29 = test system: HT-29
Hs-578T = test system: Hs-578T
M14 = test system: M14
MCF7 = test system: MCF7
MDA-MB-435 = test system: MDA-MB-435
MDA-N = test system: MDA-N
MOLT-4 = test system: MOLT-4
NCI-H226 = test system: NCI-H226
NCI-H460 = test system: NCI-H460
SF-295 = test system: SF-295
SK-MEL-2 = test system: SK-MEL-2
SNB-75 = test system: SNB-75
SW-620 = test system: SW-620
UO-31 = test system: UO-31
SR = test system: SR

Measured: GI50

COc1ccc(C(=O)C#Cc2cn(C3CC(O)C(CO)O3)c(=O)[nH]c2=O)cc1 (stereo not drawn)
inactive: 786-0 49.7 µM | CAKI-1 > 100 µM | HCC 2998 > 100 µM | HOP-62 > 100 µM | HT-29 > 100 µM | Hs-578T 30.6 µM | M14 17.9 µM | MCF7 35.5 µM | MDA-MB-435 56.8 µM | MDA-N 60.3 µM | MOLT-4 39.4 µM | NCI-H226 32 µM | NCI-H460 > 100 µM | SF-295 > 100 µM | SK-MEL-2 56.4 µM | SNB-75 > 100 µM | SW-620 43.1 µM | UO-31 > 100 µM

C[C@H](CCC1=NCCN1)[C@H]1CC[C@H]2[C@@H]3[C@H](O)C[C@@H]4C[C@H](O)CC[C@]4(C)[C@H]3CC[C@]12C
inactive: 786-0 14.6 µM | CAKI-1 24 µM | HCC 2998 15.2 µM | HOP-62 16.1 µM | HT-29 2.54 µM | Hs-578T 12.4 µM | M14 15.3 µM | MCF7 15.2 µM | MDA-MB-435 13.7 µM | MDA-N 17.3 µM | MOLT-4 11.1 µM | NCI-H226 15 µM | NCI-H460 12 µM | SF-295 15.5 µM | SK-MEL-2 16.3 µM | SNB-75 10.6 µM | SW-620 15.6 µM | UO-31 14.6 µM

CCOC(=O)C(NC(=O)c1ccccc1)(Nc1cc(C)on1)C(F)(F)F (stereo not drawn)
inactive: 786-0 > 100 µM | CAKI-1 > 100 µM | HCC 2998 > 100 µM | HOP-62 > 100 µM | HT-29 > 100 µM | Hs-578T > 100 µM | M14 > 100 µM | MCF7 > 100 µM | MDA-MB-435 > 100 µM | MDA-N > 100 µM | MOLT-4 > 100 µM | NCI-H226 > 100 µM | SF-295 > 100 µM | SK-MEL-2 > 100 µM | SNB-75 > 100 µM | SW-620 > 100 µM | UO-31 > 100 µM

S=C1CC(c2ccccc2)Sc2ccccc2N1 (stereo not drawn)
inactive: 786-0 > 10 µM | CAKI-1 55 µM | HOP-62 22.8 µM | HT-29 > 100 µM | Hs-578T 25.5 µM | M14 45 µM | MCF7 44.4 µM | MDA-MB-435 61.1 µM | MDA-N 54 µM | MOLT-4 5.22 µM | NCI-H226 > 100 µM | NCI-H460 63.1 µM | SF-295 > 100 µM | SNB-75 20.9 µM | SR > 100 µM | UO-31 > 100 µM

NCCCCNCCCNC(=O)c1csc(-c2nc(CCN)sc2Cl)n1
inactive: 786-0 > 100 µM | HCC 2998 70.8 µM | HOP-62 > 100 µM | HT-29 > 100 µM | Hs-578T > 100 µM | M14 > 100 µM | MCF7 > 100 µM | MDA-MB-435 > 100 µM | MDA-N > 100 µM | MOLT-4 > 100 µM | NCI-H226 > 100 µM | NCI-H460 > 100 µM | SF-295 > 100 µM | SNB-75 > 100 µM | SW-620 > 100 µM | UO-31 > 100 µM

Cc1[nH]c2ncn3nc(C(Cl)(Cl)Cl)nc3c2c1Cc1ccccc1
inactive: 786-0 > 100 µM | CAKI-1 > 100 µM | HCC 2998 > 100 µM | HOP-62 > 100 µM | HT-29 > 100 µM | Hs-578T > 100 µM | M14 > 100 µM | MCF7 > 100 µM | MDA-MB-435 > 100 µM | MDA-N > 100 µM | MOLT-4 > 100 µM | NCI-H226 > 100 µM | NCI-H460 > 100 µM | SF-295 > 100 µM | SK-MEL-2 > 100 µM | SNB-75 > 100 µM | SW-620 > 100 µM | UO-31 10.5 µM

O=C(O)CCC/N=C(\C(=N\CCCC(=O)O)c1ccccc1)c1ccccc1
inactive: 786-0 > 100 µM | HCC 2998 > 100 µM | HOP-62 > 100 µM | Hs-578T > 100 µM | M14 > 100 µM | MCF7 > 100 µM | MDA-MB-435 > 100 µM | MDA-N > 100 µM | MOLT-4 > 100 µM | NCI-H226 > 100 µM | NCI-H460 > 100 µM | SF-295 > 100 µM | SK-MEL-2 > 100 µM | SNB-75 > 100 µM | SR > 100 µM | SW-620 > 100 µM | UO-31 > 100 µM

Cc1ccc(-c2nc(C)c(C(=O)Nc3ccc(Cl)cc3)s2)cc1
inactive: 786-0 15.2 µM | CAKI-1 20 µM | HOP-62 13.4 µM | HT-29 > 100 µM | Hs-578T 21.8 µM | M14 27.7 µM | MCF7 > 100 µM | MDA-MB-435 > 100 µM | MDA-N > 100 µM | MOLT-4 > 100 µM | NCI-H226 20.6 µM | NCI-H460 29.5 µM | SF-295 15.4 µM | SK-MEL-2 34.4 µM | SNB-75 15.1 µM | SR > 100 µM | SW-620 41.7 µM | UO-31 18.8 µM
